For orientation: IC50 means the concentration that inhibits the measured activity by half. By melting point is commonly meant the temperature of the solid-liquid transition.

Molecules are shown by their SMILES. Like-named read-outs stand apart in the source and are kept apart here.

The subject of series [1] is HCT116 cells. Description: MTT cytotoxicity screening, human colon cancer cell line HCT116. Format: cell-based. The conditions noted are these: Homo sapiens. From the text:
Human colon cancer cell line HCT116 can be used for the preliminary cytotoxicity screening of the disclosed compounds as disclosed by Mosmann, T., “Rapid colorimetric assay for cellular growth and survival: application to proliferation and cytotoxicity assays.” J. Immunol. Methods, (1983) 65(1-2): p. 55-63 referred to herein further as the “MTT test” which is incorporated herein by reference in its entirety.
The disclosure of Mosmann recites the following. “MTT 93-(4,5-dimethylthirazol-2-yl)-2,5-diphenyl tetrazolium bromide; Sigman catalog no. M2128) was dissolved in PBS at 5 mg/ml and filtered to sterilize and remove a small amount of insoluble residue present in some batches of MTT. At the times indicated below, stock MTT solution (10 ml per 100 ml) was added to all wells of an assay, and plates were incubated at 37° C. for 4 h. Acid-siopropanol (100 ml of 0.04 N HCl in isopropanol) was added to all wells and mixed thoroughly to dissolve the dark blue crystals. After a few minutes at room temperature to ensure that all crystals were dissolved, the plates were read o a Dynatech MR580Microelisa reader, using a test wavelength of 570 nm, a reference wavelength of 630 nm, and a calibration setting of 1.99 (or 1.0 if the samples were strongly colored). Plates were normally read within 1 h of adding the isopropanol.
“Our final procedure was to add 0.01 ml MTT (5 mg/ml in phosphate-buffered saline) to 0.1 ml cells in growth medium. After 4 h at 37° C. for MTT cleavage, the formazan product was solublilized by the addition of 0.1 ml 0.04 N HCl in isopropanol. Optical density was measured on a Dynatech MR 580 plate reader, using a reference wavelength of 630 nm and a test wavelength of 570 nm.” 3-(4,5-Dimethylthiazol-2-yl)-2,5-diphenyltetrazolium bromide, a tetrazole, can pass through cellular membrane to enter into cells. This tetrazole may be reduced to the purple formazan in the mitochondria of living cells, which can diffuse out to form crystals. This crystal can be dissolved in the dimethyl sulfoxide to form a colored solution. The absorbance of this colored solution can be quantified by measuring at certain wavelength (490 nm) using a spectrophotometer. The quantity of the formazan crystal is proportional to the number of living cells.
As used herein, cells were cultured in McCoy's 5A medium supplemented with 10% heat-inactivated Fetal Bovine Serum (FBS) and 5% Penicillin/Streptomycin solution. McCoy's 5A, 1× (Iwakata & Grace modified) medium with L-Glutamine, DPBS, 1× w/o Ca and Mg, Penicillin/Streptomycin solution, Trypsin EDTA, 1× and PBS, 1× w/o Ca and Mg were purchased from Mediatech, Inc. (USA). FBS was purchased from Hyclone (USA).
The cytotoxicity of the compounds was estimated using the MTT assay. A 96-well plate was seeded with 100 μl medium containing HCT116 cells in suspension at a density of 2.5×10^4 cells/ml. After 24 hours of incubation, the cells were treated with the compounds, which were dissolved in DMSO (dimethyl sulfoxide) as stock solutions and diluted to final concentrations of 100 μM, 50 μM, 25 μM, 12.5 μM, 6.25 μM & 1 μM (for compounds tested in the micromolar concentrations) and 10 μM, 1 μM, 500 nM, 250 nM, 125 nM & 62.5 nM (for compounds tested in the nanomolar concentration range) using medium containing 0.1% DMSO. The final concentration of DMSO in the culture medium was maintained at 0.1%-0.001% (v/v). After 48 hrs incubation in the presence of test compounds, the spent medium was removed and the wells were washed twice with 100 μL of PBS solution. 100 μL of fresh medium and 10 μL of MTT (5 mg/ml in PBS) was added to the wells and incubated at 37° C. in dark for 4 hrs. The formazan product was dissolved by adding 100 μL of 100% DMSO after removing the medium from each well and was stabilized by adding 12.5 μL of Sorensen's glycine buffer to each well. […]

Where [2] appears, read: HCT-116, 48 hrs incubation, absorbance 490 nm, primary screening, read-out: IC50.

In the case of `COc1ccc(/C=C/C(=O)c2c(OC)cc(OC)c(C3=CCN(C)CC3)c2O)cc1` [Compound A10, (E)-1-(2-hydroxy-4,6-dimethoxy-3-(1-methyl-1,2,3,6-tetrahydropyridine-4-yl)phenyl)-3-(4-methoxyphenyl)-2-propylene-1-one], the melting point was 177 to 178 °C. In addition, the IC50 in series [1] (setting [2]) came out at 11.8 µM.

`COc1cc(OC)c(C(=O)/C=C/c2ccco2)c(O)c1CN1CCOCC1` [Compound E32, (E)-3-(furan-2-yl)-1-(2-hydroxy-4,6-dimethoxy-3-(morpholin-4-ylmethyl)phenyl)-2-propylene-1-one]: the melting point was in the range of 147 to 148 °C. Moreover, in series [1] (setting [2]), the IC50 came out at 45.7 µM.

Turning to `COc1cc(OC)c(C2=CCNCC2)c(O)c1C(=O)/C=C/c1cccc(C)c1` [Compound B5, (E)-1-(2-hydroxy-4,6-dimethoxy-3-(1,2,3,6-tetrahydropyridine-4-yl)phenyl)-3-(3-methylphenyl)-2-propylene-1-one], the melting point was in the range of 95 to 96 °C. In addition, the IC50 in series [1] (setting [2]) was found to be 6.13 µM.

On to `COc1cc(OC)c(C(=O)/C=C/c2ccc(Br)cc2)c(O)c1CN1CCOCC1` [Compound D4, (E)-3-(4-bromophenyl)-1-(2-hydroxy-4,6-dimethoxy-3-(morpholin-4-ylmethyl)phenyl)-2-propylene-1-one], for which the melting point was in the range of 144 to 145 °C. For the same compound, the IC50 in series [1] (setting [2]) stood at 5.52 µM. The IC50 in series [1] (HCT-116, further evaluated after secondary screening (Table VIII), read-out: IC50 value) was around 3 µM.

For `COc1cc(OC)c(C2=CCNCC2)c(O)c1C(=O)/C=C/c1ccc(N(C)C)cc1` [Compound B14, (E)-3-(4-dimethylaminophenyl)-1-(2-hydroxy-4,6-dimethoxy-3-(1,2,3,6-tetrahydropyridine-4-yl)phenyl)-2-propylene-1-one], the melting point lay within 127 to 128 °C. In addition, in series [1] (setting [2]), the IC50 was 32 µM.

For `COc1cc(OC)c(C2=CCN(C)CC2)c(O)c1C(=O)/C=C/c1ccccc1Cl` [Compound A2, (E)-3-(2-chlorophenyl)-1-(2-hydroxy-4,6-dimethoxy-3-(1-methyl-1,2,3,6-tetrahydropyridine-4-yl)phenyl)-2-propylene-1-one], the melting point lay within 184 to 185 °C. Besides, in series [1] (setting [2]), the IC50 was 28.3 µM.

`COc1ccc(-c2cc(=O)c3c(O)cc(O)c(C4=CCN(C)CC4)c3o2)cc1` [Compound G4, 5,7-hydroxy-8-(1-methyl-1,2,3,6-tetrahydropyridin-4-yl)-2-(4-methoxyphenyl)-4H-chromen-4-one]: the melting point was in the range of 190 to 191 °C. Moreover, in series [1] (setting [2]), the IC50 worked out at 3.16 µM.

In turn, `COc1cc(OC)c(C2=CCN(C)CC2)c(O)c1C(=O)/C=C/c1cccc([N+](=O)[O-])c1` [Compound A8, (E)-1-(2-hydroxy-4,6-dimethoxy-3-(1-methyl-1,2,3,6-tetrahydropyridine-4-yl)phenyl)-3-(3-nitrophenyl)-2-propylene-1-one] gave a melting point of 128 to 130 °C. Moreover, the IC50 in series [1] (setting [2]) came out at 10.5 µM.

`Cc1ccc(-c2cc(=O)c3c(O)cc(O)c(C4=CCN(C)CC4)c3o2)cc1` [Compound G3, 5,7-hydroxy-8-(1-methyl-1,2,3,6-tetrahydropyridin-4-yl)-2-(4-methylphenyl)-4H-chromen-4-one]: the melting point was in the range of 160 to 161 °C. In addition, in series [1] (setting [2]), the IC50 amounted to 3.42 µM.

The compound `COc1ccc(/C=C/C(=O)c2c(OC)cc(OC)c(C3=CCN(C)CC3)c2O)c(OC)c1OC` [Compound A16, (E)-1-(2-hydroxy-4,6-dimethoxy-3-(1-methyl-1,2,3,6-tetrahydropyridine-4-yl)phenyl)-3-(2,3-4-trimethoxyphenyl)-2-propylene-1-one] registered a melting point of 145 to 147 °C. Besides, the IC50 in series [1] (setting [2]) was determined as 3.31 µM.

The compound `COc1cc(OC)c(C2=CCN(C)CC2)c(O)c1C(=O)/C=C/c1ccc(C)cc1` [Compound A9, (E)-1-(2-hydroxy-4,6-dimethoxy-3-(1-methyl-1,2,3,6-tetrahydropyridine-4-yl)phenyl)-3-(4-methylphenyl)-2-propylene-1-one] showed a melting point of 150 to 151 °C. Besides, the IC50 in series [1] (setting [2]) is 3.87 µM.

For the origin of these results see patent US20120121692A1, “COMPOUNDS AND COMPOSITIONS COMPRISING CDK INHIBITORS AND METHODS FOR TREATING CANCER” (SHANDONG UNIVERSITY, priority 2009, published 2012).
